Values quoted from earlier work as cited in US20210393559A1, “Compositions and Methods of Use of Beta-Hydroxy-Beta-methylbutyrate (HMB) for Improving Muscle Mass, Strength and Muscular Function Without Exercise” (Metabolic Technologies, LLC, priority 2020, published 2021).

Assays:
[1] = target: T1, 1-alpha, 25-Vitamin D hydroxylase (Homo sapiens, UniProt O15528); conditions: human vascular smooth muscle
T1 sequence (O15528 1-508): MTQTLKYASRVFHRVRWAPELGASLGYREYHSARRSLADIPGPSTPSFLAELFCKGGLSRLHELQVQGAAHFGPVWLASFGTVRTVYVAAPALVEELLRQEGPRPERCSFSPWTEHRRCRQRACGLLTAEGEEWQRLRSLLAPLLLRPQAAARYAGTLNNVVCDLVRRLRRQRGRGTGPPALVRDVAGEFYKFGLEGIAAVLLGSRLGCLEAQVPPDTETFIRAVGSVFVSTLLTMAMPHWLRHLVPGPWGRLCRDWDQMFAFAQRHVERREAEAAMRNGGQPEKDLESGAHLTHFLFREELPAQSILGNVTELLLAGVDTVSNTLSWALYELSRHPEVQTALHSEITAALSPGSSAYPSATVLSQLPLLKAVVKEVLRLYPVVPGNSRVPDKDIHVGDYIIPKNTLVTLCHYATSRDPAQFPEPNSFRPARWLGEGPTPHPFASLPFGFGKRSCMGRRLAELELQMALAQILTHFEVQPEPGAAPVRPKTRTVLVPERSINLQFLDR

[2] = after HMB is fed
[3] = healthy young or old adults

C=C1CC[C@H](O)C/C1=C/C=C1\CCC[C@]2(C)[C@@H]([C@H](C)CCCC(C)(C)O)CC[C@@H]12 [25OH-VitD3]
Km [1]: 25 ng/mL

β-hydroxy-β-methylbutyrate [HMB]
loss of HMB to urine [2]: 20-50%
side effects [3]: no side effects
